Among the data in BindingDB's records for doi:10.1021/jm960720+ (Ansto, 1997) are Ki values, retold here.

In one assay the target is Sigma non-opioid intracellular receptor 1 (Cavia porcellus) (UniProt Q60492). Put plainly: Receptor binding affinity against Sigma-1 receptor from guinea pig membranes.
Sigma non-opioid intracellular receptor 1 (Cavia porcellus), sequence (Q60492 whole entry, looked up): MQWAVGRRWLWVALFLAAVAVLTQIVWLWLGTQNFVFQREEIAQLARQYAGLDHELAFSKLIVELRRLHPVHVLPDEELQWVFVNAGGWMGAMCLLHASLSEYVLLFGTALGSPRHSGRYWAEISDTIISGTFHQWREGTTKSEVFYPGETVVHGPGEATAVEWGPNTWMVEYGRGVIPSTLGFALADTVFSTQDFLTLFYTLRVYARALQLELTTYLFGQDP
For the molecule `O=[N+]([O-])c1ccc(OCC2CCN(Cc3ccc(F)cc3)CC2)cc1` [1-(4-Fluoro-benzyl)-4-(4-nitro-phenoxymethyl)-piperidine], the inhibition constant Ki (as a rule, the dissociation constant of the complex between target and ligand, obtained from inhibition or displacement) was 1.2 nM.

A further assay shares this target. Put plainly: In vitro for binding affinity at sigma-1 receptor by measuring its ability to displace [3H](+)-pentazocine from guinea pig membranes.
`N#Cc1ccc(OCC2CCN(Cc3ccccc3I)CC2)cc1` [4-[1-(2-Iodo-benzyl)-piperidin-4-ylmethoxy]-benzonitrile]: the inhibition constant Ki is 9.24 nM.

The molecule `FCCCN1CCC(COc2c(F)c(F)c(F)c(F)c2F)CC1` [1-(3-Fluoro-propyl)-4-pentafluorophenyloxymethyl-piperidine] displayed an inhibition constant Ki of 1.7 nM.

The molecule `Brc1cccc(OCC2CCN(CC3CC3)CC2)c1` [4-(3-Bromo-phenoxymethyl)-1-cyclopropylmethyl-piperidine] had a Ki of 0.88 nM.

Molecule `Fc1c(F)c(F)c(CN2CCC(COc3c(F)c(F)c(F)c(F)c3F)CC2)c(F)c1F` [1-Pentafluorophenylmethyl-4-pentafluorophenyloxymethyl-piperidine] showed a Ki of over 1000 nM.

Turning to `N#Cc1ccccc1CN1CCC(COc2ccc(I)cc2)CC1` [2-[4-(4-Iodo-phenoxymethyl)-piperidin-1-ylmethyl]-benzonitrile], affinity was put at a Ki of 10.5 nM.

`OCCN1CCC(COc2ccc(I)cc2)CC1` [2-[4-(4-Iodo-phenoxymethyl)-piperidin-1-yl]-ethanol] registered an inhibition constant Ki of 2.3 nM.

Turning to `N#Cc1ccc(OCC2CCN(CCCF)CC2)cc1`, the inhibition constant Ki turned out to be 4.3 nM.

`Fc1ccc(CN2CCC(COc3c(F)c(F)c(F)c(F)c3F)CC2)cc1` [1-(4-Fluoro-benzyl)-4-pentafluorophenyloxymethyl-piperidine] gave a Ki of 3.6 nM.

`N#Cc1ccc(OCC2CCN(CCF)CC2)cc1` [4-[1-(2-Fluoro-ethyl)-piperidin-4-ylmethoxy]-benzonitrile] registered an inhibitory constant (Ki) of 24.3 nM.

Molecule `N#Cc1ccc(OCC2CCN(Cc3ccc(F)cc3)CC2)cc1` [4-[1-(4-Fluoro-benzyl)-piperidin-4-ylmethoxy]-benzonitrile] yielded a Ki of 0.76 nM.

As to `Brc1ccc(OCC2CCN(CC3CC3)CC2)cc1` [4-(4-Bromo-phenoxymethyl)-1-cyclopropylmethyl-piperidine], the affinity, expressed as Ki, was 0.6 nM.

The molecule `Fc1cccc(CN2CCC(COc3c(F)c(F)c(F)c(F)c3F)CC2)c1` [1-(3-Fluoro-benzyl)-4-pentafluorophenyloxymethyl-piperidine] came in with an inhibition constant (Ki) of 3.3 nM.

Molecule `N#Cc1ccc(OCC2CCN(Cc3ccccc3Br)CC2)cc1` [4-[1-(2-Bromo-benzyl)-piperidin-4-ylmethoxy]-benzonitrile] had a Ki of 2.02 nM.

`Ic1ccc(OCC2CCN(CC3CC3)CC2)cc1` [1-Cyclopropylmethyl-4-(4-iodo-phenoxymethyl)-piperidine]: affinity was put at a Ki of 0.5 nM.

Regarding `N#Cc1cccc(CN2CCC(COc3ccc(I)cc3)CC2)c1` [3-[4-(4-Iodo-phenoxymethyl)-piperidin-1-ylmethyl]-benzonitrile], the affinity, expressed as Ki, was 2.9 nM.

Turning to `FCCCN1CCC(COc2ccc(Br)cc2)CC1` [4-(4-Bromo-phenoxymethyl)-1-(3-fluoro-propyl)-piperidine], affinity was put at a Ki of 0.38 nM.

For the molecule `FCCN1CCC(COc2ccc(I)cc2)CC1` [1-(2-Fluoro-ethyl)-4-(4-iodo-phenoxymethyl)-piperidine], the Ki amounted to 0.84 nM.
